Reference: publication PMC11142126 (bioRxiv, 2024)

Key:
[1] = tested on: PPM1D in MOLM13-tPPM1D cells; assay: cells; settings: read-out: 461 / 5.3 / 107
[2] = tested on: K562 p21-ffLuc reporter (wildtype TP53); assay: cells; settings: Homo sapiens, K562, read-out: 461 / 5.3 / 107
[3] = molecular target: T1, PPM1D (Homo sapiens, UniProt O15297); assay: biochemical
T1 sequence (O15297 1-420): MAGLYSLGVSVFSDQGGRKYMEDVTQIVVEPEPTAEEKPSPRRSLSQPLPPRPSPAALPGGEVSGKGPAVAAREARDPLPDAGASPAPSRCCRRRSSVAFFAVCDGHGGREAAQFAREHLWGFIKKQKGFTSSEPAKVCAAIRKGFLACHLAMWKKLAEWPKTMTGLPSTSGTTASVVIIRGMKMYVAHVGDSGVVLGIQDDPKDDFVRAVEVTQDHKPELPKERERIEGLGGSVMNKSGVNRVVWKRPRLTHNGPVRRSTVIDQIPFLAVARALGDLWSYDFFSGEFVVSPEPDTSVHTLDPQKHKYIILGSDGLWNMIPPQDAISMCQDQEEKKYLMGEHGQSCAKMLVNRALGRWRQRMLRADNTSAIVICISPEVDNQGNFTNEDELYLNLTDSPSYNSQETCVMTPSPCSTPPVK

[4] = molecular target: T1, PPM1D; assay: SPR; assay type: binding
[5] = tested on: MOLM13 TP53 WT (MOLM13-tPPM1D); assay: cells; settings: Homo sapiens, MOLM-13, read-out: 461 / 5.3 / 107

EC50 [1]: 383 nM
EC50 [2]: 221 nM
IC50 [3]: 20 nM
Kd [4]: 8 nM
IC50 [5]: 394 nM
SMILES: Cc1ncc(Cl)cc1NCc1ccc(C(=O)N[C@@H](CC2CCCC2)C(=O)NC2CC2)s1 [GSK2830371]
